Results reported in ChEMBL document CHEMBL4619795, “Establishing the Structure-Activity Relationship of Daptomycin” (ACS Med Chem Lett, 2020).
Calls of active or inactive are those of the source. No cut-off for these calls is given here.

How the values were obtained:
Staphylococcus aureus [1] = assay: Antibacterial activity against Staphylococcus aureus ATCC 29213 assessed as decrease in mutation prevention concentration measured after 72 hrs; assay type: functional, organism-based
Staphylococcus aureus [2] = assay: Bactericidal activity against Staphylococcus aureus 86 assessed as reduction in colony formation at 8 ug/ml measured at 24 hrs by time-killing assay; assay type: functional, organism-based
Enterococcus faecalis [3] = assay: Antibacterial activity against Enterococcus faecalis ATCC 29212 assessed as bacterial growth inhibition in presence of 50 ug/ml calcium ions by CLSI protocol based broth microdilution method; assay type: functional
Lipid bilayer [4] = assay: Binding affinity to POPC large unilamellar vesicles assessed as change in ellipticity […] at 50 uM in presence of phosphatidylglycerol and Ca2+ ions by circular dichroism spectroscopy
Lipid bilayer [5] = assay: Binding affinity to POPC/POPG (1:1) large unilamellar vesicles assessed as change in ellipticity […] at 50 uM in presence of phosphatidylglycerol and Ca2+ ions by circular dichroism spectroscopy
Staphylococcus aureus [6] = assay: Antibacterial activity against methicillin-resistant Staphylococcus aureus 11 assessed as bacterial growth inhibition in presence of 50 ug/ml calcium ions by CLSI protocol based broth microdilution method; assay type: functional
Staphylococcus aureus [7] = assay: Antibacterial activity against methicillin-resistant Staphylococcus aureus 88 assessed as bacterial growth inhibition in presence of 50 ug/ml calcium ions by CLSI protocol based broth microdilution method; assay type: functional
Enterococcus faecalis [8] = assay: Antibacterial activity against Streptococcus faecalis assessed as bacterial growth inhibition in presence of 50 ug/ml calcium ions by CLSI protocol based broth microdilution method; assay type: functional
Staphylococcus aureus [9] = assay: Antibacterial activity against methicillin-resistant Staphylococcus aureus 14 assessed as bacterial growth inhibition in presence of 50 ug/ml calcium ions by CLSI protocol based broth microdilution method; assay type: functional
Enterococcus [10] = assay: Antibacterial activity against Enterococcus 6 assessed as bacterial growth inhibition in presence of 50 ug/ml calcium ions by CLSI protocol based broth microdilution method; assay type: functional
Staphylococcus aureus [11] = assay: Antibacterial activity against methicillin-resistant Staphylococcus aureus 86 assessed as bacterial growth inhibition in presence of 50 ug/ml calcium ions by CLSI protocol based broth microdilution method; assay type: functional
Staphylococcus aureus [12] = assay: Antibacterial activity against Staphylococcus aureus ATCC 29213 assessed as bacterial growth inhibition in presence of 50 ug/ml calcium ions by CLSI protocol based broth microdilution method; assay type: functional
Enterococcus [13] = assay: Antibacterial activity against Enterococcus 60 assessed as bacterial growth inhibition in presence of 50 ug/ml calcium ions by CLSI protocol based broth microdilution method; assay type: functional
Lipid bilayer [14] = assay: Binding affinity to POPC large unilamellar vesicles assessed as conformational changes at 50 uM in presence of phosphatidylglycerol and Ca2+ ions by circular dichroism spectroscopy
Staphylococcus aureus [15] = assay: Antibacterial activity against Staphylococcus aureus ATCC 43300 infected in Galleria mellonella larvae assessed as increase in larvae survival at 50 mg/kg measured up to 48 hrs post-infection; assay type: functional, organism-based
[16] = Toxicity in Galleria mellonella larvae infected with Staphylococcus aureus ATCC 43300 assessed as larvae death at 50 mg/kg measured at 36 hrs post-infection; assay type: organism-based; conditions: in vivo
Lipid bilayer [17] = assay: Binding affinity to POPC/POPG (1:1) large unilamellar vesicles assessed as conformational changes at 50 uM in presence of phosphatidylglycerol and Ca2+ ions by circular dichroism spectroscopy
Lipid bilayer [18] = assay: Binding affinity to POPC/POPG (1:1) large unilamellar vesicles assessed as close proximity of tryptophan and kynurenine residues at 50 uM in presence of phosphatidylglycerol and Ca2+ ions by circular dichroism spectroscopy
Lipid bilayer [19] = assay: Binding affinity to POPC large unilamellar vesicles assessed as close proximity of tryptophan and kynurenine residues at 50 uM in presence of phosphatidylglycerol and Ca2+ ions by circular dichroism spectroscopy

Structure (SMILES): CCCCCCCCCC(=O)N[C@@H](Cc1cn(C)c2ccccc12)C(=O)N[C@@H](CC(N)=O)C(=O)N[C@@H](CC(=O)O)C(=O)N[C@@H]1C(=O)NCC(=O)N[C@@H](CCCN)C(=O)N[C@@H](CC(=O)O)C(=O)N[C@H](C)C(=O)N[C@@H](CC(=O)O)C(=O)NCC(=O)N[C@H](CO)C(=O)N[C@@H]([C@@H](C)CC(=O)O)C(=O)N[C@@H](CC(=O)c2ccccc2N)C(=O)O[C@@H]1C
- Activity (Staphylococcus aureus [1]): Active
- Activity (Staphylococcus aureus [2]): Active

Structure (SMILES): CCCCCCCCCC(=O)N[C@@H](Cc1c[nH]c2ccccc12)C(=O)N[C@@H](CC(N)=O)C(=O)N[C@@H](CC(=O)O)C(=O)N[C@@H]1C(=O)NCC(=O)N[C@@H](CCCN)C(=O)N[C@@H](CC(=O)O)C(=O)N[C@H](C)C(=O)N[C@@H](CCC(=O)O)C(=O)NCC(=O)N[C@H](CO)C(=O)N[C@@H]([C@@H](C)CC(=O)O)C(=O)N[C@@H](CC(=O)c2ccccc2N)C(=O)O[C@@H]1C
- MIC (Enterococcus faecalis [3]): ≥ 32 µg/mL
- Activity (Lipid bilayer [4]): Active
- Activity (Lipid bilayer [5]): Active
- MIC (Staphylococcus aureus [6]): ≥ 32 µg/mL
- MIC (Staphylococcus aureus [7]): ≥ 32 µg/mL
- MIC (Enterococcus faecalis [8]): ≥ 32 µg/mL
- MIC (Staphylococcus aureus [9]): ≥ 32 µg/mL
- MIC (Enterococcus [10]): ≥ 32 µg/mL
- MIC (Staphylococcus aureus [11]): ≥ 32 µg/mL
- MIC (Staphylococcus aureus [12]): ≥ 32 µg/mL
- MIC (Enterococcus [13]): ≥ 32 µg/mL

Structure (SMILES): CCCCCCCCCC(=O)N[C@@H](Cc1c[nH]c2ccccc12)C(=O)N[C@H](CC(N)=O)C(=O)N[C@@H](CC(=O)O)C(=O)N[C@@H]1C(=O)NCC(=O)N[C@@H](CCCN)C(=O)N[C@@H](CC(=O)O)C(=O)N[C@H](C)C(=O)N[C@@H](CC(=O)O)C(=O)NCC(=O)N[C@H](CO)C(=O)N[C@@H]([C@H](C)CC(=O)O)C(=O)N[C@@H](CC(=O)c2ccccc2N)C(=O)O[C@@H]1C
- Activity (Lipid bilayer [14]): Active
- Activity (Staphylococcus aureus [15]): inactive
- MIC (Enterococcus faecalis [3]): 4 µg/mL
- MIC (Staphylococcus aureus [6]): 0.5 µg/mL
- Activity [16]: Toxic
- Activity (Lipid bilayer [17]): Active
- MIC (Staphylococcus aureus [7]): 0.25 µg/mL
- MIC (Enterococcus faecalis [8]): 4 µg/mL
- MIC (Staphylococcus aureus [9]): 0.5 µg/mL
- Activity (Lipid bilayer [18]): Active
- MIC (Enterococcus [10]): 2 µg/mL
- MIC (Staphylococcus aureus [11]): 0.5 µg/mL
- MIC (Staphylococcus aureus [12]): 0.25 µg/mL
- MIC (Enterococcus [13]): 2 µg/mL
- Activity (Lipid bilayer [19]): Active
